Experimental data as given in ChEMBL document CHEMBL1201862, “PubChem BioAssay data set” (2004).
Active and inactive are the calls of the source.

What was measured:
Caspase-3 = biological target: T1, Caspase-3 (Homo sapiens, UniProt P42574); type: functional;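 note: Dose-response selectivity test against caspase-3 for candidate inhibitors of sentrin-specific proteases (SENPs)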
T1 sequence (P42574 whole entry): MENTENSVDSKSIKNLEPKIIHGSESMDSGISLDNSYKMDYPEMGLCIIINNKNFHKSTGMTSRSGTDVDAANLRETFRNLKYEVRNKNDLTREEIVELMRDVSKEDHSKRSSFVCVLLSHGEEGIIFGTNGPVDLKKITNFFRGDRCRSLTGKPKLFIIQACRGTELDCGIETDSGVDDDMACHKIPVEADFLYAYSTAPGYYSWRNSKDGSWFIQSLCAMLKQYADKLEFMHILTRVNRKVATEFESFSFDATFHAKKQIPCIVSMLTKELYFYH

[1] = biological target: T2, Sentrin-specific protease 6 (Homo sapiens, UniProt Q9GZR1); type: functional;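 note: Luminescence-based dose-response confirmatory assay of SENP6 inhibition, following up an ultra-high-throughput screen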
T2 sequence (Q9GZR1 whole entry): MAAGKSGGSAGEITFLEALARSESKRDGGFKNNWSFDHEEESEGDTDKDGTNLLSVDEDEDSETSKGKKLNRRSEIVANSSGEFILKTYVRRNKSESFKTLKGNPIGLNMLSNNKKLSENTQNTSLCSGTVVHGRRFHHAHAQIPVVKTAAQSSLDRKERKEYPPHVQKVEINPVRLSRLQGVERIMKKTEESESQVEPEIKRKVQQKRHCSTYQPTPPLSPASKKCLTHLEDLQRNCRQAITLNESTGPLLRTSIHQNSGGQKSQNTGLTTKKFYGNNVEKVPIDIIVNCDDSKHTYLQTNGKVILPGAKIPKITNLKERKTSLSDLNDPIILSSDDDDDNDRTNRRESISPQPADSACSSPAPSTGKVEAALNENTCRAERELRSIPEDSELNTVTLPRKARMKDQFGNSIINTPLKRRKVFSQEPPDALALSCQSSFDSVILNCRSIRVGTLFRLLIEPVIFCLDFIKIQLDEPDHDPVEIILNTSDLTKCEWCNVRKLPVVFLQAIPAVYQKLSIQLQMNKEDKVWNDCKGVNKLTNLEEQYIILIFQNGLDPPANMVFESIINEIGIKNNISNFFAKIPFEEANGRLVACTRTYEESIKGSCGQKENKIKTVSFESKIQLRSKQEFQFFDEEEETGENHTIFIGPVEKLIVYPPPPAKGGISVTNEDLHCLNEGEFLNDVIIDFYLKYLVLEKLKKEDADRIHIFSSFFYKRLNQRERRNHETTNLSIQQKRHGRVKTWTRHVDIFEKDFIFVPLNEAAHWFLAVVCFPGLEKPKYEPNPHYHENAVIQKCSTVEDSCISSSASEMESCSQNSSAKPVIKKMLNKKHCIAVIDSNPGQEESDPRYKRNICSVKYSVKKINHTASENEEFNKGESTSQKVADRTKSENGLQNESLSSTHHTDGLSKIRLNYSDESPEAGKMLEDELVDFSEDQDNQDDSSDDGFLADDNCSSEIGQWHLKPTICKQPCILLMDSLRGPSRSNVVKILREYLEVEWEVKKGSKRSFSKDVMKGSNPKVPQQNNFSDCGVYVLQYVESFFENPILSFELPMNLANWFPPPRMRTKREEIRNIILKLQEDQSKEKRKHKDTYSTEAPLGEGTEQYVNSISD

[2] = biological target: T3, Sentrin-specific protease 8 (Homo sapiens, UniProt Q96LD8); type: functional;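 note: luminescence read-out of SENP8 inhibition, dose-response confirmation following an ultra-high-throughput screen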
T3 sequence (Q96LD8 whole entry): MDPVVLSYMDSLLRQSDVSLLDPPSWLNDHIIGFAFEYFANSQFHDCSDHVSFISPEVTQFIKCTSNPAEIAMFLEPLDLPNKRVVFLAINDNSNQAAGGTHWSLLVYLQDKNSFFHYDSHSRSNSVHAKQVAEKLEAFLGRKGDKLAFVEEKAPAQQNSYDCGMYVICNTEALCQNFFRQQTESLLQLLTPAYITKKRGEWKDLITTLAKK

[3] = biological target: T4, Sentrin-specific protease 7 (Homo sapiens, UniProt Q9BQF6); type: functional;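 note: Luminescence-based dose-response confirmation of ultra-high-throughput screening hits, measuring inhibition of SENP7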
T4 sequence (Q9BQF6 whole entry): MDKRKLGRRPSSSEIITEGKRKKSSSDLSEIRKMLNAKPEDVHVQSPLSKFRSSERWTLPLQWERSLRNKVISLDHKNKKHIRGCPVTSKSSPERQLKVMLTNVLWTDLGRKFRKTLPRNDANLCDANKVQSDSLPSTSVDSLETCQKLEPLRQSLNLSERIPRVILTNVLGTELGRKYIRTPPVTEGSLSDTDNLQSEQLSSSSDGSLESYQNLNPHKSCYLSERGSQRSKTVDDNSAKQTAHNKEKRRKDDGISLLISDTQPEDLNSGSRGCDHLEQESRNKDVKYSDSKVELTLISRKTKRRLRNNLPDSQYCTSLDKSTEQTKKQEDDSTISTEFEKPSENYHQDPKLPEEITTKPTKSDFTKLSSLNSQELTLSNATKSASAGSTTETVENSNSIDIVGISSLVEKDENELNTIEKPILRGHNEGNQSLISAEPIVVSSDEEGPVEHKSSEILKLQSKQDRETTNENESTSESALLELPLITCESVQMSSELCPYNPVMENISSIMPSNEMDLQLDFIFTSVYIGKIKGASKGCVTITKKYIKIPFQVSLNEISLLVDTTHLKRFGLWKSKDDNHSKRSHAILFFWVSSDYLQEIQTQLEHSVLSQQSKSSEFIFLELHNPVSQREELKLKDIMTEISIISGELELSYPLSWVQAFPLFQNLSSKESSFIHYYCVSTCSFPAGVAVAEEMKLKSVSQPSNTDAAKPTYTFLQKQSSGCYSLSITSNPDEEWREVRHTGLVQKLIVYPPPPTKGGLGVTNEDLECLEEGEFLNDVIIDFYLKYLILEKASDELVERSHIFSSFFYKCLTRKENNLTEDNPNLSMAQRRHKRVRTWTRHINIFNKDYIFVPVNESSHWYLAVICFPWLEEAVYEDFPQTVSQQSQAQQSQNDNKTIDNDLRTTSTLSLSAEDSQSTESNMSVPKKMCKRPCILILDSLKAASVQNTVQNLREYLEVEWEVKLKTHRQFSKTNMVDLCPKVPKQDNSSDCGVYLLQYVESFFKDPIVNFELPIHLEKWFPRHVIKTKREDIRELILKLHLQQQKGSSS

[4] = cytotoxicity toward NIH3T3 fibroblasts, dose response, counter-screen, cell-based, ATP luminescence, mouse fibroblasts (AID 2010); type: functional;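 note: cells exposed to compound for about 90 hours before reading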
cells = type: functional
[5] = inhibitors of intracellular T. cruzi replication, confirmation, NIH3T3 host cells, beta-gal luminescence (AID 2044); type: functional, cell-based;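 note: intracellular parasites grown in NIH/3T3 mouse fibroblasts as host cells; luminescent beta-galactosidase reporter signal from transgenic T. cruzi replicating inside host cells; inhibitors lower the luminescence signal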
[6] = biological target: T5, Mitochondrial peptide methionine sulfoxide reductase (Bos taurus, UniProt P54149); experiment: Absorbance-based biochemical high throughput dose response assay for activators of Methionine sulfoxide reductase A (MsrA).; type: functional
T5 sequence (P54149 whole entry): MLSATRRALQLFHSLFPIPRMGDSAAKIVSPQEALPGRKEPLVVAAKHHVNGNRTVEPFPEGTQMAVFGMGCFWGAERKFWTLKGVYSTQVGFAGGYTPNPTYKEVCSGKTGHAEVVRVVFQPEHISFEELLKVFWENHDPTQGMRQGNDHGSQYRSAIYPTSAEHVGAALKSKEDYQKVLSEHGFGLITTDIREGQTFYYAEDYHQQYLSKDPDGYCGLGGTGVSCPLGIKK

[7] = biological target: T6, Polyadenylate-binding protein 1 (Homo sapiens, UniProt P11940); experiment: PABP1 MLLE–PAM2 binding inhibitor potency, dose response, biochemical, fluorescence polarization, FITC-PAM2 peptide (AID 602259); type: functional; conditions: read-out: IC50_Mean
T6 sequence (P11940 whole entry): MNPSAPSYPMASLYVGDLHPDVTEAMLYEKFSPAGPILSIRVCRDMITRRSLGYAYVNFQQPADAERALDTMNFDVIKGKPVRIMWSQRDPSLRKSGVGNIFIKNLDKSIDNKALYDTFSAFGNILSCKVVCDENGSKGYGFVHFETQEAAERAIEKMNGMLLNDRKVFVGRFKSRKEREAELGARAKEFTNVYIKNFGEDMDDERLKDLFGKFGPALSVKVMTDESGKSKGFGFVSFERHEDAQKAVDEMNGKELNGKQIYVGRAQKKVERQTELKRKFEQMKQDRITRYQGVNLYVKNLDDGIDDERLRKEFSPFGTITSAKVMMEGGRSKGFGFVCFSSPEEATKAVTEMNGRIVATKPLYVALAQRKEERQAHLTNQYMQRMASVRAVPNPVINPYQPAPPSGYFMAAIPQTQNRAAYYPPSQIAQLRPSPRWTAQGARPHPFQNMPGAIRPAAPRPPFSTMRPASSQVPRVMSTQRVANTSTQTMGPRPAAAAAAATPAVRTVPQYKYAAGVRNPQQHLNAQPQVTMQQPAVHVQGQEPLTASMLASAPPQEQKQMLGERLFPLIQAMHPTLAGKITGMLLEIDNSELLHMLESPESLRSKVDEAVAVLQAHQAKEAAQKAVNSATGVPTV

[8] = biological target: T6, Polyadenylate-binding protein 1; experiment: PABP1 MLLE–PAM2 interaction inhibitors, dose response, miRNA deadenylation inhibitor project, biochemical, fluorescence polarization, Cy5-PAM2 peptide, secondary (AID 602260); type: functional; conditions: read-out: IC50_Mean
[9] = biological target: T7, Endoribonuclease toxin MazF (Escherichia coli K-12, UniProt P0AE70); experiment: MazF toxin RNase activators, dose response, biochemical, fluorescence, single-stranded RNA substrate, uHTS hits (AID 588481); type: functional
T7 sequence (P0AE70 whole entry): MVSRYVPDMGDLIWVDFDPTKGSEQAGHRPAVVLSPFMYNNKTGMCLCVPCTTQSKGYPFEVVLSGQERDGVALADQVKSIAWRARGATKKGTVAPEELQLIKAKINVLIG

[10] = biological target: T7, Endoribonuclease toxin MazF; experiment: fluorescent RNA oligo signal without MazF, dose response, counter-screen for MazEF activator project, biochemical, fluorescence, single-stranded RNase substrate (AID 588502); type: functional
[11] = biological target: Photoreceptor-specific nuclear receptor (Homo sapiens, UniProt Q9Y5X4); type: functional, cell-based;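 note: CHO-S cells with Gal4-NCOR and VP16-NR2E3 two-hybrid luciferase reporter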
Sequence of Photoreceptor-specific nuclear receptor (Q9Y5X4 whole entry, the tested form may be a part): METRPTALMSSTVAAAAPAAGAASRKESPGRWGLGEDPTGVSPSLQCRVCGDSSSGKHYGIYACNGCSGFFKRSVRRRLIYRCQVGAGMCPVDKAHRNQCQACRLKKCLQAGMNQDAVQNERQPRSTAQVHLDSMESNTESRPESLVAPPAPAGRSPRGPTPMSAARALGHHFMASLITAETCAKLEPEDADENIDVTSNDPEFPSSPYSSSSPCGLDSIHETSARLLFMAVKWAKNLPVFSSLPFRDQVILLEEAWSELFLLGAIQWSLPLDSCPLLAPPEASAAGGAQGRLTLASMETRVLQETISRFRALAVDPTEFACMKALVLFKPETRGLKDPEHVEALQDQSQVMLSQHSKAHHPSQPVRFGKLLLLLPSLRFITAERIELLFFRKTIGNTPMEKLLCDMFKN

Vero = experiment: cells; type: functional; conditions: Chlorocebus sabaeus
[12] = growth suppression of beta-catenin-knockout colon cells, dose response, cell-based, HCT116, human colon tumor (AID 1045); type: functional;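 note: HCT116 colon tumor cells with beta catenin knocked out; cells exposed to compound for 60 hours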
[13] = biological target: T8, DNA repair and recombination protein RAD54-like (Homo sapiens, UniProt Q92698); experiment: inhibitors of human RAD54 branch migration, confirmation, biochemical, fluorescence, cherry-picked samples, dose series (AID 651657); type: functional
T8 sequence (Q92698 whole entry): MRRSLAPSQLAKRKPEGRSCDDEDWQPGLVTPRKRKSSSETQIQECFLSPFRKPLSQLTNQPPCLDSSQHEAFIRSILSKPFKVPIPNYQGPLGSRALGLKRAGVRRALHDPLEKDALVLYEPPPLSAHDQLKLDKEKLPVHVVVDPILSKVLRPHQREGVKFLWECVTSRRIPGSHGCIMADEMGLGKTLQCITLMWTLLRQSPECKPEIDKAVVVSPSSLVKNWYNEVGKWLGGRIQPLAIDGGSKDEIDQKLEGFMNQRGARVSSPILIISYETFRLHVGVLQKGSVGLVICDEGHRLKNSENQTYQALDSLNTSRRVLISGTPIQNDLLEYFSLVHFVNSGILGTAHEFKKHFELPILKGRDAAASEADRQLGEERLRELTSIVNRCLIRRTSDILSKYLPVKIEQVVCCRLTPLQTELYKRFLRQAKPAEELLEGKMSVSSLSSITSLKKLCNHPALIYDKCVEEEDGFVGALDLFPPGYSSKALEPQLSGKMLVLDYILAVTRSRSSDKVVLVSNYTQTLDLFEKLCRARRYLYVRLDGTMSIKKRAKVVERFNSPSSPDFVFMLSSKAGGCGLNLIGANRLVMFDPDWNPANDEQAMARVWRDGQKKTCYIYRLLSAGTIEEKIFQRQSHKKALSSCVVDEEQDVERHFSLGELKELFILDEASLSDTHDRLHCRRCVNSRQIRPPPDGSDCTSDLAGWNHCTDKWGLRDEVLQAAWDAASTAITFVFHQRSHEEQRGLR

[14] = growth suppression of PTEN-null colon cells, dose response, cell-based, HCT116 PTEN knockout (AID 1047); type: functional;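 note: HCT116 colon tumor cells with PTEN knocked out; cells exposed to compound for 60 hours before readout; potency for loss of cell viability measured by luminescence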
[15] = biological target: T9, Ubiquitin-conjugating enzyme E2 N (Homo sapiens, UniProt P61088); type: functional;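 note: Dose-response confirmation in a TR-FRET assay detecting UBC13-driven polyubiquitin chain formation, inhibition measured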
T9 sequence (P61088 whole entry): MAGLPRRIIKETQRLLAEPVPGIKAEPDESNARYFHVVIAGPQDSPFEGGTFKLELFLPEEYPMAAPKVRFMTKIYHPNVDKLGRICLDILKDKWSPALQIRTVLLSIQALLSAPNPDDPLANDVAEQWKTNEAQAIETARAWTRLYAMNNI

Question: Which results are given for `O=C(Nc1ccccc1)c1ccc(-c2ccccc2Cl)o1`?
Answer: IC50 (Caspase-3): 74.3 µM (active); IC50 [1]: > 100 µM (inactive); IC50 [2]: > 100 µM (inactive); IC50 [3]: 4.47 µM (active)

Question: What does the source list for `O=C(OCC(=O)N1CCC(c2ccccc2)=N1)c1ccc([N+](=O)[O-])s1`?
Answer: EC50 [4]: > 30 µM (not active); IC50 (Caspase-3): 28.2 µM (active); IC50 [1]: 7.19 µM (active); IC50 (cells): 1.13 µM (active); EC50 [5]: 0.809 µM (active); IC50 [2]: 5.92 µM (active); IC50 [3]: 18.9 µM (active)

Question: What does the source list for `COCc1cc(=O)[nH]c(=S)[nH]1`?
Answer: EC50 [6]: > 104 µM (inactive); IC50 [7]: > 66 µM (inactive); IC50 [8]: > 66 µM (inactive)

Question: Which EC50 [9] does the source give for `CCOC(=O)C1=C(C)N=c2s/c(=C/c3ccccc3)c(=O)n2C1c1ccc(OC)c(OC)c1` (configuration not stated) here?
Answer: The EC50 was > 99 µM (inactive).

Question: And the EC50 [10]?
Answer: The EC50 was > 99 µM (inactive).

Question: What does the source list for `Brc1ccc(NN=Nc2ccccc2)cc1`?
Answer: IC50 (Caspase-3): 27.1 µM (active); IC50 [1]: 11.2 µM (active); IC50 [2]: 10.9 µM (active); IC50 [3]: 4.66 µM (active)

Question: For `CCCCC(=O)NNC(=S)NC(=O)c1ccc([N+](=O)[O-])cc1`, which EC50 [6] is on record?
Answer: The EC50 was > 104 µM (inactive).

Question: For `COc1cccc(NC(=O)c2ccc(-c3ccc([N+](=O)[O-])cc3)o2)c1`, which EC50 [9] is on record?
Answer: Its EC50 is > 99 µM (inactive).

Question: What about the EC50 [10] of the same compound?
Answer: The EC50 was > 99 µM (inactive).

Question: For `O=C(c1cc(S(=O)(=O)N2CCN(c3ccccc3)CC2)ccc1Cl)N1CCCCCCC1`, which IC50 [11] is on record?
Answer: The IC50 was 5.5 µM (active).

Question: What does the source list for `Cc1ccc(-c2nc(N(C)C3CCN(C)CC3)c3ccccc3n2)cc1`?
Answer: CC50 (Vero): 16.3 µM (active); EC50 [12]: 6.51 µM (active); AC50 [13]: 3.93 µM (active); EC50 [14]: 6.77 µM (active)

Question: For `COc1ccc(-c2cc(C)no2)cc1S(=O)(=O)N1CCOc2ccc(C)cc21`, which EC50 [9] is on record?
Answer: Its EC50 is > 99 µM (inactive).

Question: And the EC50 [10]?
Answer: The EC50 was > 99 µM (inactive).

Question: For `CCCCN(CC)CCCNC(=O)c1cc2c(=O)n(C)c3ccccc3c2n1C`, which IC50 [15] is on record?
Answer: Its IC50 is > 20 µM (inactive).

Question: And the AC50 [13]?
Answer: The AC50 was 22.2 µM (active).
